Reference: ChEMBL document CHEMBL1201862, “PubChem BioAssay data set” (2004)
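Results reflect a 48-hour exposure of cells in 96-well plates to compound at five concentrations. GI50 is the concentration that inhibits growth by half.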 The source made the active and inactive calls. Cut-off read from the data, not from the text of the source: active = GI50 up to about 1.1 µM and inactive = higher.

What was measured:
Test in all cases: NCI anticancer screen, dose series, 48 h
MCF7 = system: MCF7
PC-3 = system: PC-3
K562 = system: K562
SK-OV-3 = system: SK-OV-3
SK-MEL-2 = system: SK-MEL-2
CAKI-1 = system: CAKI-1
SR = system: SR
HL-60 = system: HL-60
HCC 2998 = system: HCC 2998
DU-145 = system: DU-145
MDA-MB-231 = system: MDA-MB-231
NCI/ADR-RES = system: NCI/ADR-RES
IGROV-1 = system: IGROV-1
TK-10 = system: TK-10
OVCAR-8 = system: OVCAR-8
BT-549 = system: BT-549
ACHN = system: ACHN
MDA-N = system: MDA-N
NCI-H460 = system: NCI-H460

O=C(O)CC[P+](c1ccccc1)(c1ccccc1)c1ccccc1
GI50 (MCF7): 39 µM (inactive) | GI50 (PC-3): 37.4 µM (inactive) | GI50 (K562): 11.7 µM (inactive) | GI50 (SK-OV-3): 88.5 µM (inactive) | GI50 (SK-MEL-2): 21.6 µM (inactive) | GI50 (CAKI-1): > 100 µM (inactive) | GI50 (SR): 50.4 µM (inactive) | GI50 (HL-60): 11.5 µM (inactive) | GI50 (HCC 2998): > 100 µM (inactive) | GI50 (DU-145): 48.2 µM (inactive) | GI50 (MDA-MB-231): 57.5 µM (inactive) | GI50 (NCI/ADR-RES): > 100 µM (inactive) | GI50 (IGROV-1): 15 µM (inactive) | GI50 (TK-10): > 100 µM (inactive) | GI50 (OVCAR-8): 43.5 µM (inactive) | GI50 (BT-549): 21.1 µM (inactive) | GI50 (ACHN): > 100 µM (inactive) | GI50 (MDA-N): 20.4 µM (inactive)

CCCCCCCCCCCCNC(=O)CCC(NC(=O)c1ccc(N(C)Cc2cnc3nc(N)nc(N)c3n2)cc1)C(=O)NCCCCCCCCCCCC (configuration not stated)
GI50 (MCF7): 30.6 µM (inactive) | GI50 (PC-3): > 100 µM (inactive) | GI50 (K562): 18.5 µM (inactive) | GI50 (SK-MEL-2): 30 µM (inactive) | GI50 (SR): 11.9 µM (inactive) | GI50 (HL-60): 31.8 µM (inactive) | GI50 (HCC 2998): 45.7 µM (inactive) | GI50 (DU-145): > 100 µM (inactive) | GI50 (MDA-MB-231): 10.1 µM (inactive) | GI50 (NCI/ADR-RES): > 100 µM (inactive) | GI50 (IGROV-1): 36.1 µM (inactive) | GI50 (TK-10): 38.3 µM (inactive) | GI50 (OVCAR-8): 16.9 µM (inactive) | GI50 (BT-549): 41.2 µM (inactive) | GI50 (ACHN): > 100 µM (inactive) | GI50 (MDA-N): 41.7 µM (inactive)

C#CCOC(=O)C(N)CSSCC(N)C(=O)O (configuration not stated)
GI50 (MCF7): > 100 µM (inactive) | GI50 (PC-3): > 100 µM (inactive) | GI50 (SK-MEL-2): > 100 µM (inactive) | GI50 (CAKI-1): > 100 µM (inactive) | GI50 (SR): > 100 µM (inactive) | GI50 (HL-60): > 100 µM (inactive) | GI50 (HCC 2998): > 100 µM (inactive) | GI50 (DU-145): > 100 µM (inactive) | GI50 (MDA-MB-231): > 100 µM (inactive) | GI50 (NCI/ADR-RES): > 100 µM (inactive) | GI50 (IGROV-1): > 100 µM (inactive) | GI50 (TK-10): > 100 µM (inactive) | GI50 (OVCAR-8): > 100 µM (inactive) | GI50 (BT-549): > 100 µM (inactive) | GI50 (NCI-H460): > 100 µM (inactive) | GI50 (ACHN): > 100 µM (inactive) | GI50 (MDA-N): > 100 µM (inactive)

Nc1c(Cl)ncnc1N[C@@H]1C[C@H]1CO
GI50 (MCF7): > 100 µM (inactive) | GI50 (PC-3): > 100 µM (inactive) | GI50 (K562): > 100 µM (inactive) | GI50 (SK-MEL-2): > 100 µM (inactive) | GI50 (CAKI-1): > 100 µM (inactive) | GI50 (SR): > 100 µM (inactive) | GI50 (HL-60): > 100 µM (inactive) | GI50 (HCC 2998): > 100 µM (inactive) | GI50 (DU-145): > 100 µM (inactive) | GI50 (MDA-MB-231): > 100 µM (inactive) | GI50 (NCI/ADR-RES): > 100 µM (inactive) | GI50 (IGROV-1): > 100 µM (inactive) | GI50 (TK-10): > 100 µM (inactive) | GI50 (OVCAR-8): > 100 µM (inactive) | GI50 (BT-549): > 100 µM (inactive) | GI50 (NCI-H460): > 100 µM (inactive) | GI50 (ACHN): > 100 µM (inactive) | GI50 (MDA-N): > 100 µM (inactive)

O=C(O)C12C3C4(C(=O)O)C1C1(C(=O)O)C2C3(C(=O)O)C41 (configuration not stated)
GI50 (MCF7): > 100 µM (inactive) | GI50 (PC-3): > 100 µM (inactive) | GI50 (K562): < 0.01 µM (active) | GI50 (SK-MEL-2): > 100 µM (inactive) | GI50 (CAKI-1): > 100 µM (inactive) | GI50 (SR): > 100 µM (inactive) | GI50 (HL-60): > 100 µM (inactive) | GI50 (HCC 2998): > 100 µM (inactive) | GI50 (DU-145): > 100 µM (inactive) | GI50 (MDA-MB-231): > 100 µM (inactive) | GI50 (NCI/ADR-RES): > 100 µM (inactive) | GI50 (IGROV-1): > 100 µM (inactive) | GI50 (TK-10): > 100 µM (inactive) | GI50 (OVCAR-8): > 100 µM (inactive) | GI50 (BT-549): > 100 µM (inactive) | GI50 (NCI-H460): > 100 µM (inactive) | GI50 (ACHN): > 100 µM (inactive) | GI50 (MDA-N): > 100 µM (inactive)

COc1ccccc1-c1c(C#N)c(N)[nH]c(=S)c1C#N
GI50 (MCF7): 44.5 µM (inactive) | GI50 (PC-3): 32.1 µM (inactive) | GI50 (K562): 14.4 µM (inactive) | GI50 (SK-MEL-2): 37 µM (inactive) | GI50 (CAKI-1): > 100 µM (inactive) | GI50 (SR): 46.5 µM (inactive) | GI50 (HL-60): 34.7 µM (inactive) | GI50 (HCC 2998): 74.3 µM (inactive) | GI50 (DU-145): > 100 µM (inactive) | GI50 (MDA-MB-231): 47.6 µM (inactive) | GI50 (NCI/ADR-RES): > 100 µM (inactive) | GI50 (IGROV-1): 92.3 µM (inactive) | GI50 (TK-10): > 100 µM (inactive) | GI50 (OVCAR-8): 61.4 µM (inactive) | GI50 (BT-549): 47.9 µM (inactive) | GI50 (NCI-H460): 67 µM (inactive) | GI50 (ACHN): > 100 µM (inactive) | GI50 (MDA-N): 25.9 µM (inactive)

COC1=C2CC(C)CC(OC)C(OC(=O)CCCN)C(C)/C=C(\C)C(OC(N)=O)C(OC)/C=C\C=C(/C)C(=O)NC(=CC1=O)C2=O (configuration not stated)
GI50 (MCF7): 0.865 µM (active) | GI50 (PC-3): 9.2 µM (inactive) | GI50 (K562): 0.54 µM (active) | GI50 (SK-OV-3): 15.5 µM (inactive) | GI50 (SK-MEL-2): 12.1 µM (inactive) | GI50 (CAKI-1): 10.7 µM (inactive) | GI50 (SR): 3.02 µM (inactive) | GI50 (HL-60): 0.289 µM (active) | GI50 (HCC 2998): 10.1 µM (inactive) | GI50 (DU-145): 9.23 µM (inactive) | GI50 (MDA-MB-231): 9.16 µM (inactive) | GI50 (NCI/ADR-RES): 19.9 µM (inactive) | GI50 (IGROV-1): 7.08 µM (inactive) | GI50 (TK-10): 7.16 µM (inactive) | GI50 (OVCAR-8): 6.97 µM (inactive) | GI50 (BT-549): 4.29 µM (inactive) | GI50 (NCI-H460): 15.5 µM (inactive) | GI50 (ACHN): 5.4 µM (inactive) | GI50 (MDA-N): 4.33 µM (inactive)

CN(C)CCNC(=O)c1ccc(NC(=O)c2nc([N+](=O)[O-])cn2C)cc1
GI50 (MCF7): > 100 µM (inactive) | GI50 (PC-3): > 100 µM (inactive) | GI50 (K562): > 100 µM (inactive) | GI50 (SK-OV-3): > 100 µM (inactive) | GI50 (SK-MEL-2): > 100 µM (inactive) | GI50 (CAKI-1): > 100 µM (inactive) | GI50 (SR): > 100 µM (inactive) | GI50 (HL-60): > 100 µM (inactive) | GI50 (DU-145): > 100 µM (inactive) | GI50 (MDA-MB-231): > 100 µM (inactive) | GI50 (NCI/ADR-RES): > 100 µM (inactive) | GI50 (IGROV-1): > 100 µM (inactive) | GI50 (TK-10): > 100 µM (inactive) | GI50 (OVCAR-8): > 100 µM (inactive) | GI50 (BT-549): > 100 µM (inactive) | GI50 (NCI-H460): > 100 µM (inactive) | GI50 (ACHN): > 100 µM (inactive) | GI50 (MDA-N): > 100 µM (inactive)
